Tests used:
[1] = test system: MDR Neisseria gonorrhoeae; experiment: RNA-seq expression profile analysis after PBT2 treatment; assay type: cell-based
Protocol: Expression profile analysis using RNA-seq was performed to investigate the mode of action of PBT2 in killing Neisseria gonorrhoeae.

[2] = test system: Helicobacter pylori 26695; experiment: MIC of PBT2 alone (agar); assay type: cell-based
Protocol: (§1) The MIC of PBT2 against four Helicobacter pylori 26695 strains was determined. The strains tested were sensitive to PBT2.

Campylobacter jejuni = experiment: Sensitivity across Campylobacter jejuni strains; assay type: cell-based; settings: all strains tested
Protocol: The MIC of PBT2 against three Campylobacter jejuni strains was determined. All strains tested were sensitive to PBT2.

[3] = Plasma drug level of PBT2 in clinical trial (NCT02249728); assay type: in vivo, human; settings: 250 mg/day; MDR Neisseria gonorrhoeae
[4] = test system: Neisseria gonorrhoeae WHO Z; experiment: MIC of PBT2 alone (broth and agar); assay type: cell-based
Description: (§2) 13 multidrug resistant WHO strains of Neisseria gonorrhoeae were selected to cover antimicrobial resistance phenotypes to all the antibiotics currently used. MS11 is a laboratory strain and ATCC49226 is a CLSI standard MIC control strain (CLSI. 2022. Performance Standards for Antimicrobial Susceptibility Testing, 32nd Edition. Clinical and Laboratory Standards Institute which is hereby incorporated by reference in its entirety). The MICs (minimum inhibitory concentration) of PBT2 alone in the absence of zinc or a further antimicrobial agent against these Neisseria gonorrhoea strains are summarised in Table 1.

[5] = test system: Neisseria gonorrhoeae WHO K; experiment: MIC of PBT2 alone (broth and agar); assay type: cell-based
Description: as §2

[6] = test system: Neisseria gonorrhoeae MS11; experiment: MIC of PBT2 alone (broth and agar); assay type: cell-based
Description: as §2

[7] = test system: Neisseria gonorrhoeae WHO O; experiment: MIC of PBT2 alone (broth and agar); assay type: cell-based
Description: as §2

[8] = test system: Neisseria gonorrhoeae WHO Y; experiment: MIC of PBT2 alone (broth and agar); assay type: cell-based
Description: as §2

[9] = test system: Neisseria gonorrhoeae WHO E; experiment: MIC of PBT2 alone (broth and agar); assay type: cell-based
Description: as §2

[10] = test system: Neisseria gonorrhoeae WHO G; experiment: MIC of PBT2 alone (broth and agar); assay type: cell-based
Description: as §2

[11] = test system: Neisseria gonorrhoeae WHO C; experiment: MIC of PBT2 alone (broth and agar); assay type: cell-based
Description: as §2

[12] = test system: Neisseria gonorrhoeae WHO M; experiment: MIC of PBT2 alone (broth and agar); assay type: cell-based
Description: as §2

[13] = test system: Neisseria gonorrhoeae WHO P; experiment: MIC of PBT2 alone (broth and agar); assay type: cell-based
Description: as §2

[14] = test system: Neisseria gonorrhoeae WHO N; experiment: MIC of PBT2 alone (broth and agar); assay type: cell-based
Description: as §2

Helicobacter pylori = experiment: Sensitivity across Helicobacter pylori strains; assay type: cell-based; settings: strains tested
Protocol: as §1

[15] = test system: Neisseria meningitidis MC58 (B); experiment: MIC of PBT2 (broth and agar)
[16] = sub-MIC PBT2 0.156 mg/L, cut-off >=2-fold, P<0.05
[17] = up-regulated gene WHOZ_00323 (ABC transporter periplasmic binding protein, iron related)
[18] = up-regulated gene WHOZ_00324 (iron(III) ABC transporter permease)

In the case of `CN(C)Cc1ccc2c(Cl)cc(Cl)c(O)c2n1` [PBT2, 5,7-dichloro-2-[(dimethylamino)methyl]quinolin-8-ol], the LogFC ([1]; down-regulated gene cysK (Cysteine synthetase)) is reported as 1.76, the LogFC ([1]; down-regulated gene nqrE) is reported as 1.80 and the LogFC ([1]; down-regulated gene nqrF) is reported as 1.80. The “regulation of genes encoding NADH-associated proteins” value ([1]; sub-MIC PBT2 0.156 mg/L, FIG. 3) was “down-regulated”, the “number of down-regulated genes” value [1, 16] was 96 genes and the “number of up-regulated genes” value [1, 16] was 62 genes. For the same compound, the LogFC ([1]; up-regulated gene WHOZ_00302 (MpeR)) was 4.33, the “Fold Change” value [1, 17] was 5.44 fold and the LogFC [1, 17] was 2.44. The “Fold Change” value [1, 18] was 3.74 fold, the LogFC [1, 18] was 1.90 and the LogFC ([1]; up-regulated gene WHOZ_00403 (putative lipoprotein)) was 4.26. The LogFC ([1]; up-regulated gene WHOZ_00412 (putative ferredoxin)) was 2.15, the LogFC ([1]; up-regulated gene WHOZ_00413 (Thioredoxin)) was 2.81 and the LogFC ([1]; up-regulated gene WHOZ_00880 (integral membrane protein)) was 1.97. It also gave a LogFC ([1]; up-regulated gene WHOZ_01151 (TonB-dependent receptor plug domain-containing protein)) of 2.25, a LogFC ([1]; up-regulated gene WHOZ_01152 (hemoglobin receptor)) of 2.36 and a LogFC ([1]; up-regulated gene WHOZ_01153 (hemoglobin receptor)) of 1.96. It also gave a LogFC ([1]; up-regulated gene WHOZ_01683 (fetA)) of 2.18, a LogFC ([1]; up-regulated gene WHOZ_01837 (outer membrane protein)) of 1.97 and a LogFC ([1]; up-regulated gene WHOZ_01985 (hypothetical periplasmic protein)) of 2.46. It also gave a LogFC ([1]; up-regulated gene WHOZ_02005 (transferrin-binding protein-like)) of 3.33, a LogFC ([1]; up-regulated gene WHOZ_02042 (TonB)) of 3.58 and a LogFC ([1]; up-regulated gene WHOZ_02043 (ExbB)) of 3.40. The LogFC ([1]; up-regulated gene WHOZ_02044 (ExbD protein)) was 3.64, the LogFC ([1]; up-regulated gene WP_003690577.1 (hypothetical protein)) was 2.20 and the LogFC ([1]; up-regulated gene WP_003690710.1 (hypothetical protein)) was 3.11. For the same compound, the LogFC ([1]; up-regulated gene fumC (Fumarase C)) was 3.61, the MIC [2] was 1.25 µg/mL and the sensitivity (Campylobacter jejuni) was “sensitive”. For the same compound, the “plasma AUC relative to PBT2 MIC (313 ng/ml)” value [3] was 5 fold, the MIC ([4]; MIC concentration used in time-kill assay) was 0.313 µg/mL and the MIC ([4]; agar) was 0.625 µg/mL. For the same compound, the MIC ([4]; broth) was 0.312 µg/mL, the MIC ([5]; agar) was 0.625 µg/mL and the MIC ([5]; broth) was 0.312 µg/mL. It also gave an MIC ([6]; agar) of 0.625 µg/mL, an MIC ([6]; broth) of 0.156 µg/mL and an MIC ([7]; agar) of 0.625 µg/mL. For the same compound, the MIC ([7]; broth) was 0.156 µg/mL, the MIC ([8]; agar) was 0.625 µg/mL and the MIC ([8]; broth) was 0.156 µg/mL. For the same compound, the MIC ([9]; agar) was 0.312 µg/mL, the MIC ([9]; broth) was 0.156 µg/mL and the MIC ([10]; agar) was 0.312 µg/mL. It also gave an MIC ([10]; broth) of 0.156 µg/mL, an MIC ([11]; agar) of 0.625 µg/mL and an MIC ([11]; broth) of 0.312 µg/mL. For the same compound, the MIC ([12]; agar) was 0.625 µg/mL, the MIC ([12]; broth) was 0.312 µg/mL and the MIC ([13]; agar) was 0.625 µg/mL. For the same compound, the MIC ([13]; broth) was 0.312 µg/mL, the MIC ([14]; agar) was 0.625 µg/mL and the MIC ([14]; broth) was 0.156 µg/mL. For the same compound, the sensitivity (Helicobacter pylori) was “sensitive”, the MIC ([15]; agar) was 0.039 µg/mL and the MIC ([15]; broth) was 0.156 µg/mL.
